Molecules are shown by their SMILES. Some results are limits rather than exact numbers.

For this assay, the target named is T1, human PAH with the R408W mutation (A375 R408W cells) (Homo sapiens, UniProt P00439, R408W).
T1 construct: expressed in transfected cells
T1 sequence (P00439 1-452 R408W): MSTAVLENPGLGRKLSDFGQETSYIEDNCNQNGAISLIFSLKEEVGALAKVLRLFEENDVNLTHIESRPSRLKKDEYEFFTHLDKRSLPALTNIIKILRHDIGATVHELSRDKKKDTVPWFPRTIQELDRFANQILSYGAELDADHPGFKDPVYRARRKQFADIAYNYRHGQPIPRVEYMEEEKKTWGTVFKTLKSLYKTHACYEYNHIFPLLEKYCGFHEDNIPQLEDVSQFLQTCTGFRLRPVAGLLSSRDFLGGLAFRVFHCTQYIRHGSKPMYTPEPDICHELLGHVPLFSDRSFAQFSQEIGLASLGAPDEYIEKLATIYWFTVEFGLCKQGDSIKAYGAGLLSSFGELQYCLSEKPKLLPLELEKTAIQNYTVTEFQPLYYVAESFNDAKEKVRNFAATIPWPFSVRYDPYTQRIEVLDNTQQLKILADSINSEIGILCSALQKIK
Nature of the assay: Cell Based Phenylalanine Flux Assay. The following applies: A375 R408W cells; 24 hrs with compound, then 20 μM sepiapterin and 800 μM 13C9,15N-Phenylalanine for 4 hours; 13C-Tyrosine by LC-MS; average where tested multiple times. Put shortly:
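Puromycin-selected A375 line, lentiviral hPAH R408W; cmpd 24 h, 37 °C, 5% CO2, 0.5% DMSO; then 20 μM sepiapterin + 800 μM 13C9,15N-Phe, 4 h; media extracted in 80% MeCN; 13C-Tyr by LC-MS; AC50 from 10-pt curves.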
By AC50 is commonly meant the concentration giving half of the maximal activity seen. Consider `Cc1ccc2oc([C@H]3c4nc[nH]c4CCN3C(=O)c3ncnn3C)nc2c1` [Example 746, (R)-(1-methyl-1H-1,2,4-triazol-5-yl)(4-(5-methylbenzo[d]oxazol-2-yl)-6,7-dihydro-1H-imidazo[4,5-c]pyridin-5(4H)-yl)methanone], for which the AC50 lay within 1 to 5 µM.

On to `Cc1cccc2nc([C@@H]3c4nc[nH]c4CCN3C(=O)c3ccnn3C)oc12` [Example 747, (S)-(1-methyl-1H-pyrazol-5-yl)(4-(7-methylbenzo[d]oxazol-2-yl)-6,7-dihydro-1H-imidazo[4,5-c]pyridin-5(4H)-yl)methanone], for which the AC50 is not above 0.5 µM. With `Cc1cccc2nc([C@H]3c4nc[nH]c4CCN3C(=O)c3ccnn3C)oc12` [Example 748, (R)-(1-methyl-1H-pyrazol-5-yl)(4-(7-methylbenzo[d]oxazol-2-yl)-6,7-dihydro-1H-imidazo[4,5-c]pyridin-5(4H)-yl)methanone] the figure was 1 to 5 µM; with `COc1cccc2nc([C@@H]3c4nc[nH]c4CCN3C(=O)c3ccnn3C)oc12` [Example 749, (S)-(4-(7-methoxybenzo[d]oxazol-2-yl)-6,7-dihydro-1H-imidazo[4,5-c]pyridin-5(4H)-yl)(1-methyl-1H-pyrazol-5-yl)methanone], not above 0.5 µM; with `COc1cccc2nc([C@H]3c4nc[nH]c4CCN3C(=O)c3ccnn3C)oc12` [Example 750, (R)-(4-(7-methoxybenzo[d]oxazol-2-yl)-6,7-dihydro-1H-imidazo[4,5-c]pyridin-5(4H)-yl)(1-methyl-1H-pyrazol-5-yl)methanone], 1 to 5 µM.

As for `CC(C)n1nccc1C(=O)N1CCc2[nH]cnc2[C@@H]1c1nc2ccccc2o1` [Example 751, (R)-(4-(benzo[d]oxazol-2-yl)-6,7-dihydro-1H-imidazo[4,5-c]pyridin-5(4H)-yl)(1-isopropyl-1H-pyrazol-5-yl)methanone], the AC50 is 1 to 5 µM. Regarding `CC(C)n1nccc1C(=O)N1CCc2[nH]cnc2[C@H]1c1nc2ccccc2o1` [Example 752, (S)-(4-(benzo[d]oxazol-2-yl)-6,7-dihydro-1H-imidazo[4,5-c]pyridin-5(4H)-yl)(1-isopropyl-1H-pyrazol-5-yl)methanone], the AC50 was not above 0.5 µM. The value for `CC(C)(C)c1nc(C(F)F)c(C(=O)N2CCc3[nH]cnc3[C@H]2c2nc3cc(F)ccc3o2)o1` [Example 753, (S)-(2-(tert-butyl)-4-(difluoromethyl)oxazol-5-yl)(4-(5-fluorobenzo[d]oxazol-2-yl)-6,7-dihydro-1H-imidazo[4,5-c]pyridin-5(4H)-yl)methanone] was not above 0.5 µM; that for `CC(C)(C)c1nc(C(F)F)c(C(=O)N2CCc3[nH]cnc3[C@@H]2c2nc3cc(F)ccc3o2)o1` [Example 754, (R)-(2-(tert-butyl)-4-(difluoromethyl)oxazol-5-yl)(4-(5-fluorobenzo[d]oxazol-2-yl)-6,7-dihydro-1H-imidazo[4,5-c]pyridin-5(4H)-yl)methanone] was 1 to 5 µM. The value for `Cc1ccc2oc([C@@H]3c4nc[nH]c4CCN3C(=O)c3oc(-c4ccn(C)n4)nc3C(F)F)nc2c1` [Example 755, (S)-(4-(difluoromethyl)-2-(1-methyl-1H-pyrazol-3-yl)oxazol-5-yl)(4-(5-methylbenzo[d]oxazol-2-yl)-6,7-dihydro-1H-imidazo[4,5-c]pyridin-5(4H)-yl)methanone] was not above 0.5 µM. For the compound `Cc1ccc2oc([C@H]3c4nc[nH]c4CCN3C(=O)c3oc(-c4ccn(C)n4)nc3C(F)F)nc2c1` [Example 756, (R)-(4-(difluoromethyl)-2-(1-methyl-1H-pyrazol-3-yl)oxazol-5-yl)(4-(5-methylbenzo[d]oxazol-2-yl)-6,7-dihydro-1H-imidazo[4,5-c]pyridin-5(4H)-yl)methanone], the AC50 was 1 to 5 µM. For the compound `Cc1ccc2oc([C@H]3c4nc[nH]c4CCN3C(=O)c3oc(-c4cncn4C)nc3C(F)F)nc2c1` [Example 757, (R)-(4-(difluoromethyl)-2-(1-methyl-1H-imidazol-5-yl)oxazol-5-yl)(4-(5-methylbenzo[d]oxazol-2-yl)-6,7-dihydro-1H-imidazo[4,5-c]pyridin-5(4H)-yl)methanone], the AC50 lay within 1 to 5 µM. With `Cc1ccc2oc([C@@H]3c4nc[nH]c4CCN3C(=O)c3oc(-c4cncn4C)nc3C(F)F)nc2c1` [Example 758, (S)-(4-(difluoromethyl)-2-(1-methyl-1H-imidazol-5-yl)oxazol-5-yl)(4-(5-methylbenzo[d]oxazol-2-yl)-6,7-dihydro-1H-imidazo[4,5-c]pyridin-5(4H)-yl)methanone], the AC50 was not above 0.5 µM. With `Cn1cc(-c2nc(C(F)F)c(C(=O)N3CCc4[nH]cnc4[C@@H]3c3nc4ccccc4o3)o2)cn1` [Example 759, (R)-(4-(benzo[d]oxazol-2-yl)-6,7-dihydro-1H-imidazo[4,5-c]pyridin-5(4H)-yl)(4-(difluoromethyl)-2-(1-methyl-1H-pyrazol-4-yl)oxazol-5-yl)methanone] the figure was 1 to 5 µM; with `Cn1cc(-c2nc(C(F)F)c(C(=O)N3CCc4[nH]cnc4[C@H]3c3nc4ccccc4o3)o2)cn1` [Example 760, (S)-(4-(benzo[d]oxazol-2-yl)-6,7-dihydro-1H-imidazo[4,5-c]pyridin-5(4H)-yl)(4-(difluoromethyl)-2-(1-methyl-1H-pyrazol-4-yl)oxazol-5-yl)methanone], not above 0.5 µM; with `Cn1ccc(-c2nc(C(F)F)c(C(=O)N3CCc4[nH]cnc4[C@H]3c3nc4ccccc4o3)o2)n1` [Example 761, (S)-(4-(benzo[d]oxazol-2-yl)-6,7-dihydro-1H-imidazo[4,5-c]pyridin-5(4H)-yl)(4-(difluoromethyl)-2-(1-methyl-1H-pyrazol-3-yl)oxazol-5-yl)methanone], not above 0.5 µM. The value for `Cn1ccc(-c2nc(C(F)F)c(C(=O)N3CCc4[nH]cnc4[C@@H]3c3nc4ccccc4o3)o2)n1` [Example 762, (R)-(4-(benzo[d]oxazol-2-yl)-6,7-dihydro-1H-imidazo[4,5-c]pyridin-5(4H)-yl)(4-(difluoromethyl)-2-(1-methyl-1H-pyrazol-3-yl)oxazol-5-yl)methanone] was 1 to 5 µM; that for `Cn1cncc1-c1nc(C(F)F)c(C(=O)N2CCc3[nH]cnc3[C@@H]2c2nc3ccccc3o2)o1` [Example 763, (R)-(4-(benzo[d]oxazol-2-yl)-6,7-dihydro-1H-imidazo[4,5-c]pyridin-5(4H)-yl)(4-(difluoromethyl)-2-(1-methyl-1H-imidazol-5-yl)oxazol-5-yl)methanone] was 1 to 5 µM. Regarding `Cn1cncc1-c1nc(C(F)F)c(C(=O)N2CCc3[nH]cnc3[C@H]2c2nc3ccccc3o2)o1` [Example 764, (S)-(4-(benzo[d]oxazol-2-yl)-6,7-dihydro-1H-imidazo[4,5-c]pyridin-5(4H)-yl)(4-(difluoromethyl)-2-(1-methyl-1H-imidazol-5-yl)oxazol-5-yl)methanone], the AC50 was not above 0.5 µM. The value for `COc1cccc2nc([C@@H]3c4nc[nH]c4CCN3C(=O)c3ccnn3C(C)C)oc12` [Example 765, (S)-(1-isopropyl-1H-pyrazol-5-yl)(4-(7-methoxybenzo[d]oxazol-2-yl)-6,7-dihydro-1H-imidazo[4,5-c]pyridin-5(4H)-yl)methanone] was not above 0.5 µM; that for `COc1cccc2nc([C@@H]3c4nc[nH]c4CCN3C(=O)c3ccnn3C3CC3)oc12` [Example 767, (S)-(1-cyclopropyl-1H-pyrazol-5-yl)(4-(7-methoxybenzo[d]oxazol-2-yl)-6,7-dihydro-1H-imidazo[4,5-c]pyridin-5(4H)-yl)methanone] was not above 0.5 µM.

Consider `Cc1cc(C(=O)N2CCc3[nH]cnc3[C@H]2c2nc3cccc(F)c3o2)n(C)n1` [Example 769, (S)-(1,3-dimethyl-1H-pyrazol-5-yl)(4-(7-fluorobenzo[d]oxazol-2-yl)-6,7-dihydro-1H-imidazo[4,5-c]pyridin-5(4H)-yl)methanone], for which the AC50 fell in the range of 1 to 5 µM. With `Cc1cc(C(=O)N2CCc3[nH]cnc3[C@@H]2c2nc3cccc(F)c3o2)n(C)n1` [Example 770, (R)-(1,3-dimethyl-1H-pyrazol-5-yl)(4-(7-fluorobenzo[d]oxazol-2-yl)-6,7-dihydro-1H-imidazo[4,5-c]pyridin-5(4H)-yl)methanone] the figure was 1 to 5 µM; with `Cc1ccc2oc([C@@H]3c4nc[nH]c4CCN3C(=O)c3oc(-c4cnn(C)c4)nc3C(F)F)nc2c1` [Example 771, (S)-(4-(difluoromethyl)-2-(1-methyl-1H-pyrazol-4-yl)oxazol-5-yl)(4-(5-methylbenzo[d]oxazol-2-yl)-6,7-dihydro-1H-imidazo[4,5-c]pyridin-5(4H)-yl)methanone], not above 0.5 µM; with `Cc1ccc2oc([C@H]3c4nc[nH]c4CCN3C(=O)c3oc(-c4cnn(C)c4)nc3C(F)F)nc2c1` [Example 772, (R)-(4-(difluoromethyl)-2-(1-methyl-1H-pyrazol-4-yl)oxazol-5-yl)(4-(5-methylbenzo[d]oxazol-2-yl)-6,7-dihydro-1H-imidazo[4,5-c]pyridin-5(4H)-yl)methanone], 0.5 to 1 µM. The value for `O=C(c1oc(-c2ccncn2)nc1C(F)F)N1CCc2[nH]cnc2[C@H]1c1nc2cccc(F)c2o1` [Example 773, (S)-(4-(difluoromethyl)-2-(pyrimidin-4-yl)oxazol-5-yl)(4-(7-fluorobenzo[d]oxazol-2-yl)-6,7-dihydro-1H-imidazo[4,5-c]pyridin-5(4H)-yl)methanone] was not above 0.5 µM.

The values are drawn from patent US20250171437A1 (Agios Pharmaceuticals,Inc., priority 2022, published 2025).
